Results as given in paper PMC5612938, “A multiple biomarker assay for quality assessment of botanical drugs using a versatile microfluidic chip” (Scientific Reports, 2017).
Marks after values point to notes of the source that are not given here.

Assays:
[1] = target: T1, Thrombin (from human plasma) (Homo sapiens, UniProt P00734); test: on-chip thrombin inhibition assay (S-2238 hydrolysis, absorbance 405 nm); type: biochemical; parameters: key to IC50 (μM) or inhibition rate: /: No obvious inhibition observed; conditions: for thrombin inhibition (in words): at tested concentrations
T1 construct: Thrombin (from human plasma); purchased Sigma-Aldrich; host or cells: human plasma
Description: To enhance the performance of the on-chip assay, experimental parameters such as concentrations of enzymes and substrates, substrate reaction time, and incubation time of samples and enzymes were stepwise optimized. The activity of thrombin was determined by measuring the hydrolysis of chromogenic substrate S-2238 (HD-Phe-Pip-Arg-pNA) at 405 nm. As depicted in Fig. 2a, the absorbance increased rapidly along with the elevated concentrations of thrombin, while it reached a plateau at 0.5 U/mL. […] Moreover, it was clear from Fig. 2d that the maximum inhibitory effect of QSYQ sample (I1 of Table 1 in this assay) on thrombin was observed after 60 min of incubation. Therefore, to achieve favorable response and prevent signal saturation, optimal assay conditions for thrombin were determined to be 0.2 U/mL, 0.31 mM, 30 min and 60 min for the final concentrations of thrombin and S-2238, substrate reaction time and incubation time, respectively. […] In this assay, the concentrations of ACE and FAPGG were finally set at 0.027 U/mL and 0.72 mM, where the background value was lower and the reaction time was relatively shorter (30 min).
The optimized protocol was first applied to assess the quality of 11 batches of QSYQ intermediates (Table 1). Enzyme inhibition (in percentages) was employed as an indicator of drug quality and calculated according to the following equations: thrombin inhibition (%) = [1 − (AQSYQ/Ablank)] × 100; ACE inhibition (%) = [1 − (ΔAQSYQ/ΔAblank)] × 100; where AQSYQ and Ablank were the absorbance of the test sample and the blank sample after the enzymatic reaction (the background value was subtracted), and ΔAQSYQ and ΔAblank were the absorbance decrease between 0 min and 30 min of the samples. A scatter plot was generated to display the inhibition result of thrombin and ACE simultaneously. […] Moreover, artificial abnormal samples I6, I7 and I8, each with one abnormal (pre-extracted) herb, presented relatively lower inhibitions compared with I1.
Thrombin (from human plasma), ACE (from rabbit lung), FAPGG and captopril were purchased from Sigma-Aldrich (St. Louis, USA). S-2238 was obtained from Aglyco (Beijing, China). AEBSF-HCl was purchased from Selleckchem (Houston, USA). Trizma base (Tris) was obtained from Sangon Biotech (Shanghai, China) and dimethyl sulfoxide (DMSO) from J&K Scientific (Beijing, China). All other chemicals were purchased from Sinopharm Chemical (Shanghai, China) unless otherwise indicated. 0.2 M Phosphate buffer (PB, pH 6.5), and 50 mM Tris-HCl buffer (200 mM NaCl, pH 8.3) were prepared as assay buffers for thrombin and ACE, respectively.
MBs (10 mg/mL) were diluted 10 times in PB or Tris-HCl buffer, and 10 μL of the diluted MBs (1 mg/mL) were injected into one channel of the chip using a syringe infusion pump (Harvard Apparatus, USA) and retained by an external magnet. Then, 10 μL of thrombin or ACE solution was added and incubated with MBs for two hours at room temperature to form enzyme-MB complexes. The magnet was manually controlled to move MBs back and forth to enhance the ratio of reaction. Subsequently, MBs were washed twice in assay buffer and magnetically transferred to the other channel through the fluidic bridge, whose opening and closing was controlled by a pneumatic valve. Next, 10 μL of sample solutions of tested drug and 10 μL of enzymatic substrate were sequentially infused to the channel by the pump and incubated with the enzyme. When the enzymatic reaction was finished, the MBs were retained in the channel, and air was injected into the channel from the inlet using a syringe to push all the reacted solution to a 384-well plate. The absorbance of the solution was then monitored at 405 nm (for S-2238) or 340 nm (for FAPGG) using an Infinite F200 spectrophotometer (Tecan, Männedorf, Switzerland). Moreover, after detection, the reaction channel was washed three times by assay buffer to remove unbound constituents. […]

[2] = target: T1, Thrombin (from human plasma); test: on-chip affinity screening, binding degree by LC-MS peak area vs protein-free control (thrombin); conditions: for thrombin; [(As − Ac)/As] × 100, sample vs protein-free control, EIC peak area
Text: In addition to quality assessment, the microfluidic chip can also function as “affinity chromatography” to identify bioactive constituents from botanical drugs in a convenient and efficient manner. After the bioassay, the bound phytochemicals were dissociated from the enzymes and accurately identified by LC-MS. The material used for the chambers in microfluidic system, polydimethylsiloxane (PDMS), is apt to adsorb small molecules nonspecifically, thus a protein-free control was applied to reflect the degree of nonspecific binding of compounds to the chip. Peak areas were obtained from the extracted ion chromatography (EIC) in an ion-trap mass spectrometry (IT-MS), and binding degree (binding degree % = [(As − Ac)/As] × 100, where As and Ac were the peak area in the sample and control, respectively) was calculated to indicate binding specificity. […] All these peaks were unambiguously confirmed via comparisons with chemical standards in terms of retention time and mass spectra (Table 2), and five thrombin inhibitors (danshensu, salvianolic acid B, salvianolic acid C, rosmarinic acid and ginsenoside Rg1) and six ACE inhibitors (astragaloside IV, ononin, formononetin, calycosin, danshensu and salvianolic acid B) were preliminarily identified. […] Enzyme inhibition assays of these hit compounds were then performed to verify the screening results. […] Compounds showing an inhibition rate over 70% were subjected to IC50 measurement.
MBs (10 mg/mL) were diluted 10 times in PB or Tris-HCl buffer, and 10 μL of the diluted MBs (1 mg/mL) were injected into one channel of the chip using a syringe infusion pump (Harvard Apparatus, USA) and retained by an external magnet. Then, 10 μL of thrombin or ACE solution was added and incubated with MBs for two hours at room temperature to form enzyme-MB complexes. The magnet was manually controlled to move MBs back and forth to enhance the ratio of reaction. Subsequently, MBs were washed twice in assay buffer and magnetically transferred to the other channel through the fluidic bridge, whose opening and closing was controlled by a pneumatic valve. Next, 10 μL of sample solutions of tested drug and 10 μL of enzymatic substrate were sequentially infused to the channel by the pump and incubated with the enzyme. When the enzymatic reaction was finished, the MBs were retained in the channel, and air was injected into the channel from the inlet using a syringe to push all the reacted solution to a 384-well plate. The absorbance of the solution was then monitored at 405 nm (for S-2238) or 340 nm (for FAPGG) using an Infinite F200 spectrophotometer (Tecan, Männedorf, Switzerland). Moreover, after detection, the reaction channel was washed three times by assay buffer to remove unbound constituents. 20 μL of 80% aqueous methanol was then injected and incubated with MBs for one hour to dissociate the bound constituents. The resulting solutions of replicates were combined, evaporated by a centrifugal evaporator, reconstituted in 80% aqueous methanol, centrifuged at 10,000 rpm for 10 min, and analyzed by LC-MS for chemical identification.
An Agilent 1100 HPLC system (Agilent Technologies, Waldbronn, Germany) coupled with an LCQ Deca XP^plus IT-MS (Thermo Finnigan, San Jose, CA, USA) equipped with an electrospray ionization (ESI) interface was employed for structure elucidation of the bounded constituents. […]

Row | SMILES | thrombin inhibition (in words) [1] | IC50 ([1]; for thrombin) [µM] | Binding degree (%) [2] | IC50 (μM) or inhibition rate ([1]; for thrombin, symbol / = no obvious inhibition)
1 | O=C(/C=C/c1ccc(O)c(O)c1)O[C@H](Cc1ccc(O)c(O)c1)C(=O)O [Rosmarinic acid] | good thrombin inhibitions | 92 | 67.4^c % | 
2 | O=C(/C=C/c1ccc(O)c2oc(-c3ccc(O)c(O)c3)cc12)O[C@H](Cc1ccc(O)c(O)c1)C(=O)O [Salvianolic acid C] | good thrombin inhibitions | 180 | 100^c % | 
3 | CC(C)=CCC[C@](C)(O[C@@H]1O[C@H](CO)[C@@H](O)[C@H](O)[C@H]1O)[C@H]1CC[C@]2(C)[C@@H]1[C@H](O)C[C@@H]1[C@@]3(C)CC[C@H](O)C(C)(C)[C@@H]3[C@@H](O[C@@H]3O[C@H](CO)[C@@H](O)[C@H](O)[C@H]3O)C[C@]12C [Ginsenoside Rg1] |  |  | 20.6^c % | /^g
